# From patent US6503749B2 (Aventis Pharma S.A., priority 1998, dated 2003)
# Molecular target: T1, APAT (acetyl-coenzyme A pregnenolone acetyltransferase) (Saccharomyces cerevisiae, UniProt P53296)
# T1 construct: the semi-purified APAT transfers the acetate on 3β-ol, delta^4 or delta^5-steroids; endogenous in cells; host or cells: S. cerevisiae strain TGY73.4; endogenous enzyme purified in house from cell lysate (ZnCl2 precipitation, DEAE-Sephacel, Phenyl-Sepharose, Q-Sepharose, cholate-Sepharose)
# Assay: Test of APAT enzyme activity (semi-purified APAT; substrate specificity and inhibition)
# Type: biochemical, S. cerevisiae
# Conditions: 30 μM of each steroid tested and 100 μM of [3H]acetyl-CoA; semi-purified APAT
# Experimental: The pregnenolone is added in solution in 2 μl of tyloxapol (Sigma)/ethanol mixture (1:1) in a potassium phosphate buffer (20 mM) at pH 7.0. After incubation for 15 minutes at 30° C., the reaction is stopped by adding 2 ml of dichloromethane.
# The steroids are extracted with dichloromethane, then separated by reversed-phase high-performance liquid chromatography (hereinafter: RP-HPLC) in isocratic elution conditions with acetonitrile in an Ultrasphere ODS column (Beckman) at 45° C. on an HP 1090 chromatograph (Hewlett-Packard) connected to a FLO-One 500 radiodetector (Packard) which permits measurement of the amount of pregnenolone [^3H]acetate formed.
# One APAT unit is defined as the quantity of enzyme that produces 1 nmol of pregnenolone acetate per minute at 30° C., in the conditions described above.
# T1 sequence (P53296 whole entry): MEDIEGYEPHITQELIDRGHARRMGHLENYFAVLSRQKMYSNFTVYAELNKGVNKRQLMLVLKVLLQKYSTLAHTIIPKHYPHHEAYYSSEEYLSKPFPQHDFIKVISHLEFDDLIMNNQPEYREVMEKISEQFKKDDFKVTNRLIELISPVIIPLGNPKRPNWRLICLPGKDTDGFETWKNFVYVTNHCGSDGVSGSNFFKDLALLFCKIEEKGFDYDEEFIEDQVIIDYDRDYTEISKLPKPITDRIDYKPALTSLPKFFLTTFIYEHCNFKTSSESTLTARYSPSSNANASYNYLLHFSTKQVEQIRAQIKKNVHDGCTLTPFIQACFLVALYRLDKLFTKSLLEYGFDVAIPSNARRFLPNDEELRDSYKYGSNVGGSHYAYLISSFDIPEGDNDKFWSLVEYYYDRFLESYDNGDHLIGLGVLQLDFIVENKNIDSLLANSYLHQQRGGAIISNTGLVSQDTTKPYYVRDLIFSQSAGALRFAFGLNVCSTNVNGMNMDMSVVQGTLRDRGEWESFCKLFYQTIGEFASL
row,SMILES,"Relative activity (%), Substrate a)"
1,CC(=O)[C@H]1CC[C@H]2[C@@H]3CCC4=C[C@@H](O)CC[C@]4(C)[C@H]3CC[C@]12C [4-pregnen-3βol-20-one],70%
2,CC(=O)[C@H]1CC[C@H]2[C@@H]3CC[C@@H]4C[C@@H](O)CC[C@]4(C)[C@H]3CC[C@]12C [5β-pregnan-3βol-20-one],1.8%
3,"CC(=O)[C@@]1(O)CC[C@H]2[C@@H]3CC=C4C[C@@H](O)CC[C@]4(C)[C@H]3CC[C@@]21C [17α-OH pregnenolone, 17α-hydroxypregnenolone]",89%
4,C[C@]12CC[C@@H]3c4ccc(O)cc4CC[C@H]3[C@@H]1CC[C@@H]2O [17β-oestradiol],5%
5,"C[C@]12CC[C@H](O)CC1=CC[C@@H]1[C@@H]2CC[C@]2(C)C(=O)CC[C@@H]12 [DHEA, dehydroepiandrosterone]",104%
6,CC(=O)[C@H]1CC[C@H]2[C@@H]3CC=C4C[C@@H](O)CC[C@]4(C)[C@H]3CC[C@]12C [Pregnenolone],100%
7,CC(C)CCC[C@@H](C)[C@H]1CC[C@H]2[C@@H]3CC=C4C[C@@H](O)CC[C@]4(C)[C@H]3CC[C@]12C [cholesterol],0.6%
8,CC(C)[C@@H](C)/C=C/[C@@H](C)[C@H]1CC[C@H]2C3=CC=C4C[C@@H](O)CC[C@]4(C)[C@H]3CC[C@]12C [ergosterol],0.4%
9,C[C@]12CC[C@@H]3c4ccc(O)cc4CC[C@H]3[C@@H]1CCC2=O [oestrone],2.5%

# Same assay, conditions: 100 μM of each acyl donor and 30 μM of [3H]pregnenolone; semi-purified APAT
row,SMILES,"Relative activity (%), Substrate b)"
1,CCCC(=O)SCCNC(=O)CCNC(=O)[C@H](O)C(C)(C)COP(=O)(O)OP(=O)(O)OC[C@H]1O[C@@H](n2cnc3c(N)ncnc32)[C@H](O)[C@@H]1OP(=O)(O)O [butyryl-CoA],16%
2,CCCCCC(=O)SCCNC(=O)CCNC(=O)[C@H](O)C(C)(C)COP(=O)(O)OP(=O)(O)OC[C@H]1O[C@@H](n2cnc3c(N)ncnc32)[C@H](O)[C@@H]1OP(=O)(O)O [hexanoyl-CoA],18%
3,CCCCCCCC/C=C\CCCCCCCC(=O)SCCNC(=O)CCNC(=O)[C@H](O)C(C)(C)COP(=O)(O)OP(=O)(O)OC[C@H]1O[C@@H](n2cnc3c(N)ncnc32)[C@H](O)[C@@H]1OP(=O)(O)O [oleoyl-CoA],not detected
4,CCC(=O)SCCNC(=O)CCNC(=O)[C@H](O)C(C)(C)COP(=O)(O)OP(=O)(O)OC[C@H]1O[C@@H](n2cnc3c(N)ncnc32)[C@H](O)[C@@H]1OP(=O)(O)O [propionyl-CoA],33%

# Same assay, conditions: reagents of sulfhydryl groups
row,SMILES,Inhibition of APAT activity
1,O=C(O)c1cc(SSc2ccc([N+](=O)[O-])c(C(=O)O)c2)ccc1[N+](=O)[O-] [DTNB],strongly inhibited
2,CCN1C(=O)C=CC1=O [NEM],strongly inhibited

# Same assay, conditions: zinc chloride 1 mM
row,SMILES,Inhibition of APAT activity
1,[Cl-].[Cl-].[Zn+2] [zinc chloride],complete
